Values of other authors as cited in US5223503A, “6-substituted pyrido[2,3-d]pyrimidines as antineoplastic agents” (Eli Lilly and Company, priority 1992, dated 1993).

Test system: solid tumors
Settings: Proc. Amer. Assoc. Cancer Res., 31, 1053 (1990)

For `Nc1nc2c(c(=O)[nH]1)CC(CCc1ccc(C(=O)N[C@@H](CCC(=O)O)C(=O)O)cc1)CN2` (stereo partly shown) [lometrexol, 5,10-dideazatetrahydrofolic acid], the “clinical efficacy against solid tumors” value is listed as “clinical efficacy against solid tumors”.
